Assay results from EP4714939A1, “SULFONAMIDE COMPOUND, PREPARATION METHOD THEREFOR, AND PHARMACEUTICAL USE THEREOF” (Shenzhen Salubris Pharmaceuticals Co., Ltd., priority 2023, dated 2024).

Tests used:
[1] = in vivo; conditions: cynomolgus monkey
Description: (§1) Cynomolgus monkey: male, 3-6 kg, purchased from Guangzhou Huazhen biotechnology Co., Ltd. and Hainan Jingang Biotech Co., Ltd.

[2] = test system: Lp(a); assay: In-vitro Lp(a) assembly assay (cell-free, sandwich ELISA); format: biochemical; conditions: inhibition of Lp(a) formation; HepG2 and HEK293 (human Apo(a), 17 Kringle repeats) conditioned media, 37°C, 2 hours; 4-parameter curve
Procedure: The capability of the compounds in the examples inhibiting the formation of Lp(a) particles in vitro was evaluated through cell-free assembly assay. After incubation at 37°C with 5% CO2 for 96 h, conditioned media (supplemented with 10% FBS, 20 mM HEPES, and 1 × penicillin/streptomycin DMEM) was collected from confluent wild-type HepG2 cells (source of endogenously expressed ApoB) and an HEK293 stable cell line expressing human Apo(a) protein containing 17 Kringle repeats (selected on 1 ug/ml puromycin). In-vitro assembly assay was performed by combining equal parts of HepG2 and HEK293 conditioned media with compounds under test added in a dilution series (final concentration being 0.03-1000 nM). A reaction was incubated at 37°C for 2 hours, and terminated by adding 6-aminocaproic acid (EACA) to a final concentration of 150 mM. Sandwich ELISA was used to detect Lp(a) using an anti-Apo(a) capture antibody (ab242565) and an HRP-conjugated anti-ApoB detection antibody (ab27622). ELISA was performed using TMB staining, and terminated with 1N sulfuric acid, and signals were read at 450 nm on an Envision 2104 plate reader. By setting an assembly reaction without inhibitors to 0% inhibition and an assembly reaction with the minimum amount of HepG2 conditioned medium (50-fold dilution) to 100% inhibition, the % inhibition of Lp(a) formed under each test condition was determined. Table 1 IC90 values of sulfonamide compounds

[3] = Pharmacokinetic experiment for monkeys; conditions: Cynomolgus monkey, 5 mg/kg, p.o
Description: as §1

Structure (SMILES) | IC90 [2] | further results
O=C(O)[C@@H](Cc1cccc(CN(CCc2ccccc2C[C@H](C(=O)O)[C@H]2CCNC2)S(=O)(=O)c2cccc(C[C@H](C(=O)O)[C@H]3CCNC3)c2)c1)[C@H]1CCNC1 [Compound 3] | 61 nM | AUC(0-t) ([1]; iv, 0.5 mg/kg): 33300 ng·h/mL; half-life ([1]; iv, 0.5 mg/kg): 1900 min
O=C(O)[C@@H](Cc1cccc(S(=O)(=O)N(Cc2ccc(F)c(C[C@H](C(=O)O)[C@H]3CCNC3)c2)Cc2ccc(F)c(C[C@H](C(=O)O)[C@H]3CCNC3)c2)c1)[C@H]1CCNC1 [Compound 9] | 45.8 nM | AUC(0-t) ([1]; po, 5 mg/kg): 22100 ng·h/mL; Cmax ([1]; po, 5 mg/kg): 1690 ng/mL; F [3]: 7.49%
O=C(O)[C@@H](Cc1cccc(S(=O)(=O)N(CCc2ccccc2C[C@H](C(=O)O)[C@H]2CCNC2)Cc2cc(C[C@H](C(=O)O)[C@H]3CCNC3)ccc2F)c1)[C@H]1CCNC1 [Compound 26] | 86.7 nM | –
O=C(O)[C@@H](Cc1cccc(CN(Cc2cccc(C[C@H](C(=O)O)[C@H]3CCNC3)c2)S(=O)(=O)c2cccc(C[C@H](C(=O)O)[C@H]3CCNC3)c2)c1)[C@H]1CCNC1 [Compound 1] | 49.9 nM | AUC(0-t) ([1]; iv, 0.5 mg/kg): 41000 ng·h/mL; half-life ([1]; iv, 0.5 mg/kg): 1260 min
O=C(O)[C@@H](Cc1cccc(S(=O)(=O)N(Cc2cc(C[C@H](C(=O)O)[C@H]3CCNC3)ccc2F)Cc2cc(C[C@H](C(=O)O)[C@H]3CCNC3)ccc2F)c1)[C@H]1CCNC1 [Compound 13] | 11.5 nM | –
O=C(O)[C@@H](Cc1cccc(CN(Cc2c(F)ccc(C[C@H](C(=O)O)[C@H]3CCNC3)c2F)S(=O)(=O)c2cccc(C[C@H](C(=O)O)[C@H]3CCNC3)c2)c1)[C@H]1CCNC1 [Compound 32] | 31.4 nM | –
O=C(O)[C@@H](Cc1cccc(CN(Cc2cccc(C[C@H](C(=O)O)[C@H]3CCNC3)c2F)S(=O)(=O)c2cccc(C[C@H](C(=O)O)[C@H]3CCNC3)c2)c1)[C@H]1CCNC1 [Compound 5] | 37.9 nM | –
O=C(O)C(Cc1ccc(F)c(CN(Cc2cc(CC(C(=O)O)C3CCNC3)ccc2F)S(=O)(=O)c2ccc(F)c(CC(C(=O)O)C3CCNC3)c2)c1)C1CCNC1 [Compound 34, (2S,2'S)-3,3'-(((((3-((S)-2-carboxyl-2-((R)-pyrrolid-3-yl)ethyl)-4-fluorophenyl)sulfonyl)azadiyl)bis(methylenyl))bis(6-fluoro-3,1-phenylenyl))bis(2-((R)-pyrrolid-3-yl)propanoic acid)] | 17.7 nM | –
